Measurements as given in patent US20060293315A1, “Intermediates of novel heterocyclic compounds having antibacterial activity and process for their preparation” (Dr. Reddy's Laboratories Ltd., priority 2001, published 2006).
≈ marks a conversion by molar mass, not a printed value.

Columns and labels:
[1] = system: Enterococcus sp 153 R (Enterococcus faecalis NCTC 12201); assay: MIC by broth microdilution, Enterococcus sp 153 R; assay type: cell-based; details: NCTC12201, DRCC 153, R, broth microdilution in MHB, read-out: Antimicrobial Screening (MIC) Enterococcus sp 153 R
Protocol: (§1) Minimum Inhibiton Concentrations (MICs) were determined by broth microdilution technique as per the guidelines prescribed in the fifth edition of Approved Standards, NCCLS document M7-A5 Vol 20-No 2, 2000 Villinova, Pa.
(§2) Initial stock solution of the test compound was prepared in DMSO. Subsequent two fold dilutions were carried out in sterile Mueller Hinton Broth (Difco) (MHB).
(§3) Frozen cultures stocks were inoculated into 50 ml sterile MHB in 250 ml Erlyn Meyer flasks.
(§4) Composition of MHB is as follows:
(§5) Flasks were incubated for 4 to 5 h at 35° C. on a rotary shaker at 150 rpm. Inoculum was prepared by diluting the culture in sterile MHB to obtain a turbidity of 0.5 McFarland standard. This corresponds to 1-2×10^8 CFU/ml. The stock was further diluted in sterile broth to obtain 1-2×10^6 CFU/ml. 50 μl of the above diluted inoculum was added from 1-10 wells. The plates were incubated overnight at 37° C.

[2] = system: Staphylococcus aureus 213 Smith S (ATCC 49951); assay: MIC by broth microdilution, Staphylococcus aureus 213 Smith S; assay type: cell-based; details: ATCC49951, DRCC 213, Smith S, broth microdilution in MHB, read-out: Antimicrobial Screening (MIC) Staphylococcus aureus 213 Smith S
Protocol: as §1, §2, §3, §4, §5

[3] = system: M. catarrhalis 300 (Moraxella catarrhalis ATCC 25238); assay: MIC by broth microdilution, M. catarrhalis 300; assay type: cell-based; details: ATCC25238, DRCC 300, broth microdilution in MHB, read-out: Antimicrobial Screening (MIC) M. catarrhalis 300
Protocol: as §1, §2, §3, §4, §5

[4] = system: H. influenzae 529 (Haemophilus influenzae ATCC 9006); assay: MIC by broth microdilution, H. influenzae 529; assay type: cell-based; details: ATCC9006, DRCC 529, broth microdilution in MHB, read-out: Antimicrobial Screening (MIC) H. influenzae 529
Protocol: as §1, §2, §3, §4, §5

[5] = system: Staphylococcus aureus 035 S (ATCC 29213); assay: MIC by broth microdilution, Staphylococcus aureus 035 S; assay type: cell-based; details: ATCC29213, DRCC 035, S, broth microdilution in MHB, read-out: Antimicrobial Screening (MIC) Staphylococcus aureus 035 S
Protocol: as §1, §2, §3, §4, §5

[6] = system: H. influenzae 433 (Haemophilus influenzae ATCC 49766); assay: MIC by broth microdilution, H. influenzae 433; assay type: cell-based; details: ATCC49766, DRCC 433, broth microdilution in MHB, read-out: Antimicrobial Screening (MIC) H. influenzae 433
Protocol: as §1, §2, §3, §4, §5

Mycobacterium MTCC 006 = assay: MIC by broth microdilution, Mycobacterium MTCC 006; assay type: cell-based; details: MTCC006, broth microdilution in MHB, read-out: Antimicrobial Screening (MIC) Mycobacterium MTCC 006
Protocol: as §1, §2, §3, §4, §5

[7] = system: H. influenzae 432 (Haemophilus influenzae ATCC 49247); assay: MIC by broth microdilution, H. influenzae 432; assay type: cell-based; details: ATCC49247, DRCC 432, broth microdilution in MHB, read-out: Antimicrobial Screening (MIC) H. influenzae 432
Protocol: as §1, §2, §3, §4, §5

[8] = system: Enterococcus sp 154 R (Enterococcus faecium NCTC 12202); assay: MIC by broth microdilution, Enterococcus sp 154 R; assay type: cell-based; details: NCTC12202, DRCC 154, R, broth microdilution in MHB, read-out: Antimicrobial Screening (MIC) Enterococcus sp 154 R
Protocol: as §1, §2, §3, §4, §5

[9] = system: Staphylococcus aureus 019 MRSA (ATCC 33591); assay: MIC by broth microdilution, Staphylococcus aureus 019 MRSA; assay type: cell-based; details: DRCC 019, MRSA, broth microdilution in MHB, read-out: Antimicrobial Screening (MIC) Staphylococcus aureus 019 MRSA
Protocol: as §1, §2, §3, §4, §5

[10] = system: Enterococcus sp 034 S (Enterococcus faecalis ATCC 29212); assay: MIC by broth microdilution, Enterococcus sp 034 S; assay type: cell-based; details: ATCC29212, DRCC 034, S, broth microdilution in MHB, read-out: Antimicrobial Screening (MIC) Enterococcus sp 034 S
Protocol: as §1, §2, §3, §4, §5

Salmorella TA 97 = assay: MIC by broth microdilution, Salmorella TA 97; assay type: cell-based; details: read-out: Antimicrobial Screening (MIC) Salmorella TA 97
Protocol: as §1, §2, §3, §4, §5

## CCOC(=S)NC[C@H]1CN(c2ccc(N3CCN(Cc4ccccc4)C3=O)cc2)C(=O)O1 [Example 146]
other
  melting point: 160 °C

## COC(=S)NC[C@H]1CN(c2ccc(N3CCN(c4ccccc4)C3=O)c(F)c2)C(=O)O1 [Example 147]
other
  melting point: 174 °C

## CCOC(=S)NC[C@H]1CN(c2ccc(N3CCN(c4ccccc4)C3=O)c(F)c2)C(=O)O1 [Example 148]
other
  melting point: 195 °C

## COC(=S)NC[C@H]1CN(c2ccc(N3CCN(c4ccc(F)cc4)C3=O)c(F)c2)C(=O)O1 [Example 149]
other
  melting point: 208 °C

## CCOC(=S)NC[C@H]1CN(c2ccc(N3CCN(c4ccc(F)cc4)C3=O)c(F)c2)C(=O)O1 [Example 150]
other
  melting point: 215 °C

## CC(C)OC(=S)NC[C@H]1CN(c2ccc(N3CCN(c4ccc(F)cc4)C3=O)c(F)c2)C(=O)O1 [Example 151]
other
  melting point: 220 °C

## CN(C)CCOC(=S)NC[C@H]1CN(c2ccc(N3CCOC3=O)cc2)C(=O)O1 [Example 152]
other
  melting point: 161 °C

## COC(=S)NC[C@H]1CN(c2ccc(N3CC(=O)N(Cc4ccc(OC)cc4)C3)c(F)c2)C(=O)O1 [Example 153]
other
  melting point: 158 °C

## CC(C)OC(=S)NC[C@H]1CN(c2ccc(N3CC(=O)N(Cc4ccccc4)C3)c(F)c2)C(=O)O1 [Example 154]
other
  melting point: 192 °C

## COC(=S)NC[C@H]1CN(c2ccc(N3CC(=O)N(CO)C3)c(F)c2)C(=O)O1 [Example 155]
other
  melting point: 184 °C

## COC(=S)NC[C@H]1CN(c2ccc(N3CC(=O)N(CO)C3)cc2)C(=O)O1 [Example 157]
other
  melting point: 202 to 208 °C

## COC(=S)NC[C@H]1CN(c2ccc(N3CNC(=O)C3)cc2)C(=O)O1 [Example 158]
other
  melting point: 205 to 210 °C

## CCCCN1CN(c2ccc(N3C[C@H](CNC(=S)OC)OC3=O)cc2F)CC1=O [Example 160]
other
  melting point: 122 °C

## C=CCN1CN(c2ccc(N3C[C@H](CNC(=S)OC)OC3=O)cc2F)CC1=O [Example 161]
other
  melting point: 86 °C

## COC(=S)NC[C@H]1CN(c2cc(F)c(N3CC(=O)N(C)C3)c(F)c2)C(=O)O1 [Example 164]
[1]
  MIC: 0.5 µg/mL (≈ 1.25 µM)
[2]
  MIC: 0.5 µg/mL (≈ 1.25 µM)
[3]
  MIC: 8 µg/mL (≈ 20 µM)
[4]
  MIC: 16 µg/mL (≈ 40 µM)
[5]
  MIC: 0.5 µg/mL (≈ 1.25 µM)
[6]
  MIC: 16 µg/mL (≈ 40 µM)
Mycobacterium MTCC 006
  MIC: 4 µg/mL (≈ 9.99 µM)
[7]
  MIC: 8 µg/mL (≈ 20 µM)
[8]
  MIC: 0.5 µg/mL (≈ 1.25 µM)
[9]
  MIC: 0.25 µg/mL (≈ 0.624 µM)
[10]
  MIC: 0.5 µg/mL (≈ 1.25 µM)
Salmorella TA 97
  MIC: 16 µg/mL (≈ 40 µM)

## CCCOC(=S)NC[C@H]1CN(c2cc(F)c(N3CNC(=O)C3)c(F)c2)C(=O)O1 [Example 165]
[1]
  MIC: 2 µg/mL (≈ 4.83 µM)
[2]
  MIC: 1 µg/mL (≈ 2.41 µM)
[3]
  MIC: > 32 µg/mL
[4]
  MIC: > 32 µg/mL
[5]
  MIC: 1 µg/mL (≈ 2.41 µM)
[6]
  MIC: > 32 µg/mL
Mycobacterium MTCC 006
  MIC: 32 µg/mL (≈ 77.2 µM)
[7]
  MIC: > 32 µg/mL
other
  melting point: 186 to 188 °C
[8]
  MIC: 2 µg/mL (≈ 4.83 µM)
[9]
  MIC: 1 µg/mL (≈ 2.41 µM)
[10]
  MIC: 2 µg/mL (≈ 4.83 µM)
Salmorella TA 97
  MIC: 32 µg/mL (≈ 77.2 µM)

## COC(=S)NC[C@H]1CN(c2cc(F)c(N3CC(=O)N(CC(=O)OC(C)(C)C)C3)c(F)c2)C(=O)O1 [Example 168]
[1]
  MIC: 1 µg/mL (≈ 2 µM)
[2]
  MIC: 2 µg/mL (≈ 4 µM)
[5]
  MIC: 2 µg/mL (≈ 4 µM)
Mycobacterium MTCC 006
  MIC: 32 µg/mL (≈ 63.9 µM)
[8]
  MIC: 2 µg/mL (≈ 4 µM)
[9]
  MIC: 2 µg/mL (≈ 4 µM)
[10]
  MIC: 2 µg/mL (≈ 4 µM)
Salmorella TA 97
  MIC: 32 µg/mL (≈ 63.9 µM)

## COC(=O)CN1CN(c2c(F)cc(N3C[C@H](CNC(=S)OC)OC3=O)cc2F)CC1=O [Example 169]
[1]
  MIC: 0.5 µg/mL (≈ 1.09 µM)
[2]
  MIC: 1 µg/mL (≈ 2.18 µM)
[5]
  MIC: 2 µg/mL (≈ 4.36 µM)
Mycobacterium MTCC 006
  MIC: 8 µg/mL (≈ 17.5 µM)
[8]
  MIC: 1 µg/mL (≈ 2.18 µM)
[9]
  MIC: 1 µg/mL (≈ 2.18 µM)
[10]
  MIC: 0.5 µg/mL (≈ 1.09 µM)
Salmorella TA 97
  MIC: 32 µg/mL (≈ 69.8 µM)

## COC(=S)NC[C@H]1CN(c2ccc(N3CC(=S)N(C)C3)c(F)c2)C(=O)O1 [Example 177]
other
  melting point: 195 °C

## COCN1CN(c2ccc(N3C[C@H](CNC(=S)OC)OC3=O)cc2F)CC1=O [Example 178]
other
  melting point: 160 °C

## COC(=S)NC[C@H]1CN(c2ccc(N3CC(=O)N(Cc4ccccc4)C3)c(F)c2)C(=O)O1 [Example 179]
other
  melting point: 176 °C

## CCOC(=S)NC[C@H]1CN(c2ccc(N3CC(=O)N(Cc4ccccc4)C3)c(F)c2)C(=O)O1 [Example 180]
other
  melting point: 184 °C

## O=C1OCCN1c1ccc(N2C[C@H](CNC(=S)N3CCC[C@H]3CO)OC2=O)cc1 [Example 182]
other
  melting point: 159 °C

## CCN(CC)C(=S)NC[C@H]1CN(c2ccc(N3CCOC3=O)cc2)C(=O)O1 [Example 183]
other
  melting point: 103 °C

## C=CCNC(=S)NC[C@H]1CN(c2ccc(N3CCOC3=O)cc2)C(=O)O1 [Example 184]
other
  melting point: 171 °C

## O=C1OCCN1c1ccc(N2C[C@H](CNC(=S)NCc3ccccc3)OC2=O)cc1 [Example 185]
other
  melting point: 181 °C

## COc1ccc(CNC(=S)NC[C@H]2CN(c3ccc(N4CCOC4=O)cc3)C(=O)O2)cc1 [Example 186]
other
  melting point: 169 °C

## O=C1OCCN1c1ccc(N2C[C@H](CNC(=S)NCc3ccccn3)OC2=O)cc1 [Example 187]
other
  melting point: 165 °C

## CNC(=S)NC[C@H]1CN(c2ccc(N3CCOC3=O)cc2)C(=O)O1 [Example 188]
other
  melting point: 175 °C

## O=C1OCCN1c1ccc(N2C[C@H](CNC(=S)NCCO)OC2=O)cc1 [Example 189]
other
  melting point: 161 °C

## O=C1OCCN1c1ccc(N2C[C@H](CNC(=S)N3CCSCC3)OC2=O)cc1 [Example 190]
other
  melting point: 159 °C

## O=C1OCCN1c1ccc(N2C[C@H](CNC(=S)Nc3ccccn3)OC2=O)cc1 [Example 191]
other
  melting point: 189 °C

## NC(=S)NC[C@H]1CN(c2ccc(N3CCOC3=O)c(F)c2)C(=O)O1 [Example 192]
other
  melting point: 178 °C

## CNC(=S)NC[C@H]1CN(c2ccc(N3CCOC3=O)c(F)c2)C(=O)O1 [Example 193]
other
  melting point: 144 °C

## NC(=S)NC[C@H]1CN(c2cc(F)c(N3CCOC3=O)c(F)c2)C(=O)O1 [Example 194]
other
  melting point: 92 °C

## CNC(=S)NC[C@H]1CN(c2cc(F)c(N3CCOC3=O)c(F)c2)C(=O)O1 [Example 195]
other
  melting point: 113 °C

## COC(=S)N(C)C[C@H]1CN(c2cc(F)c(N3CNC(=O)C3)c(F)c2)C(=O)O1 [Example 198]
other
  melting point: 154 to 156 °C
